Laboratory results from patent US20250074920A1, “MACROCYCLIC COMPOUNDS AND USE AS KINASE INHIBITORS” (BLOSSOMHILL THERAPEUTICS, INC., priority 2022, published 2025).

Key:
Test in all cases: KINOMEscan kinase binding assay
[1] = test system: ABL1(F317L)-nonphosphorylated; details: at 1 μM
In short: (§1)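 Competition binding format: a test compound at a single concentration displaces phage-tagged or DNA-tagged kinase from an immobilized affinity ligand. After washing, kinase is released with 0.5 μM free ligand (30 min, room temperature) and measured by qPCR. Data are given as % Ctrl.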

[2] = test system: ABL1(M351T)-phosphorylated; details: at 1 μM
In short: as §1

[3] = test system: ABL1(Q252H)-phosphorylated; details: at 1 μM
In short: as §1

[4] = test system: ABL1(T315I)-phosphorylated; details: at 1 μM
In short: as §1

[5] = test system: ALK(C1156Y); details: at 1 μM
In short: as §1

[6] = test system: ALK(L1196M); details: at 1 μM
In short: as §1

[7] = test system: BRK; details: at 1 μM
In short: as §1

[8] = test system: CTK; details: at 1 μM
In short: as §1

[9] = test system: DDR2; details: at 1 μM
In short: as §1

[10] = test system: EGFR(L858R, T790M); details: at 1 μM
In short: (§2)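 qPCR read-out of kinase retained on ligand-coated streptavidin beads. Binding buffer: 20% SeaBlock, 0.17×PBS, 0.05% Tween 20, 6 mM DTT; 1 h RT with shaking. % Ctrl = (test − positive control)/(negative control − positive control)×100; lower values mean stronger binding.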

[11] = test system: EGFR(L861Q); details: at 1 μM
In short: as §2

[12] = test system: EGFR(S752-1759del); details: at 1 μM
In short: as §2

[13] = test system: EPHA8; details: at 1 μM
In short: as §1

[14] = test system: EPHB4; details: at 1 μM
In short: as §1

[15] = test system: EPHB6; details: at 1 μM
In short: as §1

[16] = test system: FER; details: at 1 μM
In short: as §1

[17] = test system: FGFR3(G697C); details: at 1 μM
In short: as §1

[18] = test system: FGR; details: at 1 μM
In short: as §1

[19] = test system: FLT3-autoinhibited; details: at 1 μM
In short: as §1

[20] = test system: FRK; details: at 1 μM
In short: as §1

[21] = test system: HCK; details: at 1 μM
In short: as §1

[22] = test system: INSR; details: at 1 μM
In short: as §1

[23] = test system: ITK; details: at 1 μM
In short: as §1

[24] = test system: JAK1(JH1domain-catalytic); details: for % Ctrl: JAK1(JH1domain-catalytic), at 1 μM; for Kd: read-out: JAK1(JH1 domain-catalytic) Kd
In short: as §2

[25] = test system: JAK1(JH2domain-pseudokinase); details: for % Ctrl: JAK1(JH2domain-pseudokinase), at 1 μM
In short: as §1

[26] = test system: KIT(D816H); details: at 1 μM
In short: as §1

[27] = test system: KIT(V559D, V654A); details: at 1 μM
In short: as §1

[28] = test system: KIT-autoinhibited; details: at 1 μM
In short: as §1

[29] = test system: KIT; details: at 1 μM
In short: as §1

[30] = test system: MET(Y1235D); details: at 1 μM
In short: as §1

[31] = test system: MET; details: at 1 μM
In short: as §1

[32] = test system: MUSK; details: at 1 μM
In short: as §1

[33] = test system: PDGFRA; details: at 1 μM
In short: as §1

[34] = test system: RET(M918T); details: at 1 μM
In short: as §1

[35] = test system: SRC; details: at 1 μM
In short: as §1

[36] = test system: TIE1; details: at 1 μM
In short: as §1

[37] = test system: TIE2; details: at 1 μM
In short: as §1

[38] = test system: TYK2(JH2domain-pseudokinase); details: for % Ctrl: TYK2(JH2domain-pseudokinase), at 1 μM; for Kd: read-out: TYK2(JH2 domain-pseudokinase) Kd
In short: as §2

[39] = test system: VEGFR2; details: at 1 μM
In short: as §1

C[C@@H]1COCc2nn(C)cc2-c2cc(Cl)c3c(c2)/C(=C/c2[nH]ccc2C(=O)N1)C(=O)N3 [Cpd. 4, [3a(4)Z,10R]-20-chloro-10,15-dimethyl-10,11,13,15-tetrahydro-2H-1,17-(ethanediylidene)pyrazolo[4,3-m]dipyrrolo[3,2-f:3′,4′-i][1,4]oxazacyclopentadecine-3,8(5H,9H)-dione]
% Ctrl [1]: 96% | % Ctrl [2]: 94% | % Ctrl [3]: 89% | % Ctrl [4]: 35% | % Ctrl [5]: 100% | % Ctrl [6]: 94% | % Ctrl [7]: 83% | % Ctrl [8]: 76% | % Ctrl [9]: 79% | % Ctrl [10]: 77% | % Ctrl [11]: 89% | % Ctrl [12]: 93% | % Ctrl [13]: 82% | % Ctrl [14]: 98% | % Ctrl [15]: 86% | % Ctrl [16]: 68% | % Ctrl [17]: 79% | % Ctrl [18]: 100% | % Ctrl [19]: 93% | % Ctrl [20]: 78% | % Ctrl [21]: 100% | % Ctrl [22]: 81% | % Ctrl [23]: 99% | % Ctrl [24]: 94% | Kd [24]: > 10000 nM | % Ctrl [25]: 0.25% | Kd ([25]; read-out: JAK1(JH2 domain-pseudokinase) Kd): 29 nM | % Ctrl [26]: 80% | % Ctrl [27]: 99% | % Ctrl [28]: 82% | % Ctrl [29]: 100% | % Ctrl [30]: 100% | % Ctrl [31]: 98% | % Ctrl [32]: 98% | % Ctrl [33]: 96% | % Ctrl [34]: 98% | % Ctrl [35]: 100% | % Ctrl [36]: 84% | % Ctrl [37]: 91% | % Ctrl [38]: 0.2% | Kd [38]: 1.9 nM | % Ctrl [39]: 94%

Cc1cc2c([nH]1)/C=C1\C(=O)Nc3ccc(cc31)-c1c(nn(C)c1C)OCCCN(C)C2=O [Cpd. 1, [3a(4)Z]-6,9,15,16-tetramethyl-9,10,11,12-tetrahydro-15H-1,17-(ethanediylidene)pyrazolo[4,3-n]dipyrrolo[3,2-g:3′,4′-j][1,5]oxazacyclopentadecine-3,8(2H,5H)-dione]
% Ctrl [1]: 83% | % Ctrl [2]: 100% | % Ctrl [3]: 99% | % Ctrl [4]: 95% | % Ctrl [5]: 100% | % Ctrl [6]: 89% | % Ctrl [7]: 92% | % Ctrl [8]: 58% | % Ctrl [9]: 95% | % Ctrl [10]: 89% | % Ctrl [11]: 82% | % Ctrl [12]: 88% | % Ctrl [13]: 100% | % Ctrl [14]: 86% | % Ctrl [15]: 100% | % Ctrl [16]: 97% | % Ctrl [17]: 100% | % Ctrl [18]: 91% | % Ctrl [19]: 92% | % Ctrl [20]: 93% | % Ctrl [21]: 93% | % Ctrl [22]: 95% | % Ctrl [23]: 89% | % Ctrl [24]: 82% | Kd [24]: > 10000 nM | % Ctrl [25]: 100% | % Ctrl [26]: 74% | % Ctrl [27]: 100% | % Ctrl [28]: 81% | % Ctrl [29]: 91% | % Ctrl [30]: 98% | % Ctrl [31]: 84% | % Ctrl [32]: 93% | % Ctrl [33]: 87% | % Ctrl [34]: 84% | % Ctrl [35]: 89% | % Ctrl [36]: 100% | % Ctrl [37]: 95% | % Ctrl [38]: 1.5% | Kd [38]: 220 nM | % Ctrl [39]: 93%
